According to patent US9364496B2 (ONCOGENEX TECHNOLOGIES INC., priority 2013, dated 2016):
Entries after “also recorded” stand apart in the source; their conditions may differ. Oligonucleotides are written 5' to 3', each unit as a sugar letter and its base; * is a phosphorothioate linkage, no mark a phosphodiester; rarer units and linkages stand in square brackets, end groups in braces. Plain capitals give the bases only. e = 2'-O-(2-methoxyethyl) (MOE); [5mC] = 5-methylcytosine; d = 2'-deoxy (DNA)

Legend:
[1] = tested on: clusterin; details: cited from earlier work
[2] = in vivo
[3] = tested on: melanoma; assay type: in vivo, human; details: each group; loading doses then custirsen with a chemotherapeutic agent
Description: At least 50 melanoma patients are separated into two groups.

[4] = Phase I healthy volunteer study TV1011-DDI-102, 640 mg custirsen; assay type: in vivo
Description: Three subjects withdrew from the study due to these constitutional symptoms.

[5] = tested on: myeloma; assay type: in vivo, human; details: each group; loading doses then custirsen with a chemotherapeutic agent
Description: At least 50 myeloma patients are separated into two groups.

[6] = tested on: breast cancer; assay type: in vivo, human; details: each group; loading doses then custirsen with a chemotherapeutic agent
Description: At least 50 breast cancer patients are separated into two groups.

Custirsen: anti-clusterin antisense oligonucleotide CAGCAGCAGAGTCTTCATCAT, phosphorothioate backbone, 2′-O-methoxyethyl at nucleotides 1-4 and 18-21, 5-methylcytosines at 1, 4, 19 (antisense e[5mC]*eA*eG*e[5mC]*dA*dG*dC*dA*dG*dA*dG*dT*dC*dT*dT*dC*dA*eT*e[5mC]*eA*eT; listed as Homo sapiens)
expression of clusterin [1]: potently regulated the expression of clusterin; also recorded: potently reduces the expression of clusterin | sensitization of cancer cells to chemotherapy ([1]; human prostate, breast, ovarian, lung, renal, bladder, and melanoma cells): sensitizes | grade-4 liver toxicity [2]: no reports | incidence of elevated liver function tests (ELFTs) [2]: higher incidence | cancer condition of patients [3]: improves | time of peak of prolonged coagulation parameters after dose ([4]; human, in vivo): around 48 hours | coagulation parameters (PTT and PT) ([4]; most subjects, starting a few hours after the first loading dose): Slightly prolonged | AEs related to custirsen ([4]; multiple 640 mg doses, after the first infusion): 93 AEs | deaths or other SAEs ([4]; single and repeated doses of 640 mg custirsen, healthy volunteers): No deaths or other SAEs were reported; also recorded: no SAEs | cancer condition of patients [5]: improves | cancer condition of patients [6]: improves
